Experimental data published in patent publication US20030225002A1, “Co-therapy for the treatment of migraine comprising anticonvulsant derivatives and anti-migraine agents” (priority 2002, published 2003).
Structures can show the parent of a compound that is named as a salt.

Assays:
Format in all cases: in vivo, human
[1] = test system: refractory migraine (migraine without aura); experiment: Case Study 2: refractory migraine without aura; details: for Response of refractory migraine to earlier therapy: CORGARD in combination with PROZAC or CELEXA or trazodone
Method: The patient was a person with a lifelong history of refractory migraine (migraine without aura), averaging 8 migraines per month. […] The patient was started on topiramate at 25 mg/day, with dosage increasing to 75 mg/day. Simultaneously, the beta-blocker, CORGARD dosage was decreased to 20 mg/day, with CELEXA at 20 mg/day also continued.

[2] = test system: severe refractory migraine with and without aura; experiment: Case Study 3: severe refractory migraine with and without aura
Method: The patient was a person with a twenty-year history of severe refractory migraine with and without aura. […] The patient was started on topiramate at 50 mg/day increasing to 100 mg in the morning and 100 mg in the evening, in combination with INDERAL at 160 mg/day. […] After about 6 months, the patient was prescribed EFFEXOR XR (vanlafaxine HCl) at 37 mg/day, an increased topiramate dose of 125 mg in the morning and 150 mg in the evening, and 160 mg/day INDERAL.

[3] = test system: persistent daily headache with migraine features; experiment: Case Study 1: persistent daily headache with migraine features; details: one patient; for Response of persistent daily headache to earlier therapy: before topiramate
Source text: The patient was a person with persistent daily headache with migraine features.

CN(C)CCCC1(c2ccc(F)cc2)OCc2cc(C#N)ccc21 (stereo not shown) [CELEXA, citalopram HCl]
Response of refractory migraine to earlier therapy [1]: no response

CC(C)(C)NCC(O)COc1cccc2c1CC(O)C(O)C2 (stereo not shown) [CORGARD, nadolol]
Response of refractory migraine to earlier therapy [1]: no response

CCCC(CCC)C(=O)O [DEPAKOTE, valproic acid]
Response of severe refractory migraine ([2]; earlier therapy): modest symptomatic response
Tolerability, reason for discontinuation ([2]; earlier therapy): discontinued due to weight gain

CC(C)NCC(O)COc1cccc2ccccc12.Cl (stereo not shown) [INDERAL, propranolol HCl]
Response of severe refractory migraine ([2]; INDERAL at 120 mg/day in combination with tricyclic antidepressants): Only modest response
Response of persistent daily headache to earlier therapy [3]: failed to respond

CN1CCC(=C2c3ccccc3C=Cc3ccccc32)CC1 [PERIACTIN, cyproheptadine HCl]
Response of persistent daily headache to earlier therapy [3]: failed to respond

CNCCC(Oc1ccc(C(F)(F)F)cc1)c1ccccc1 (stereo not shown) [PROZAC, fluoxetine HCl]
Response of refractory migraine to earlier therapy [1]: no response

CNS(=O)(=O)CCc1ccc2[nH]cc(C3CCN(C)CC3)c2c1 [naratriptan]
Response of severe headaches [3]: did however respond

CNCCC=C1c2ccccc2CCc2ccccc21 [nortriptyline]
Response of persistent daily headache to earlier therapy [3]: failed to respond

Cc1cc2nc3c(=O)[nH]c(=O)nc-3n(C[C@H](O)[C@H](O)[C@H](O)CO)c2cc1C [riboflavin]
Effect of supplementation ([1]; 400 mg/day): no improvement

CNS(=O)(=O)Cc1ccc2[nH]cc(CCN(C)C)c2c1 [sumatriptan]
Response of severe refractory migraine ([2]; repeated frequent use): symptomatic response

O=c1n(CCCN2CCN(c3cccc(Cl)c3)CC2)nc2ccccn12 [trazodone]
Response of refractory migraine to earlier therapy [1]: no response
